Experimental findings from ChEMBL document CHEMBL1130990, “High-throughput synthesis and direct screening for the discovery of novel hydrolytic metal complexes” (Bioorg Med Chem Lett, 1998) are described below.

Molecules are shown by their SMILES.

A short description of data set [1]: Compound was evaluated for rate enhancement, obtained in the hydrolysis of N-methoxycarbonyl-L-phenylalanine-p-nitrophenylester (Ko = 1.1 x 10 e-3/min); ratio=Kobs/K0. Type of data set: ADME.
Data set [2] is described as follows: Compound was evaluated for rate enhancement, obtained in the hydrolysis of para-nitrophenyl acetate (Ko = 1.6 x 10 e-4/min); ratio=Kobs/K0. Type of data set: ADME.

For the molecule `[O-][Cl+3]([O-])([O-])[O][Zn][O][Cl+3]([O-])([O-])[O-].c1ccc(OC2COc3ccccc3CNCCNCCNCc3ccccc3OC2)cc1`, the Ratio turned out to be 3.9 in data set [1] and 2.5 in data set [2].
The matching figures for `COC1COc2ccccc2CNCCNCCNCc2ccccc2OC1.[O-][Cl+3]([O-])([O-])[O][Zn][O][Cl+3]([O-])([O-])[O-]`: 3 and 2.4.
The matching figures for `OC1COc2ccccc2CNCCNCCNCc2ccccc2OC1.[O-][Cl+3]([O-])([O-])[O][Zn][O][Cl+3]([O-])([O-])[O-]`: 2.9 and 1.7.
Taken in the same sequence, the figures for `[O-][Cl+3]([O-])([O-])[O][Zn][O][Cl+3]([O-])([O-])[O-].c1ccc2c(c1)CNCCNCCNCc1ccccc1OCC(Oc1ccc3ccccc3c1)CO2` were 4.7 and 2.9.
